Reference: ChEMBL document CHEMBL1201862, “PubChem BioAssay data set” (2004)
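All cell lines were grown in 96-well plates and treated with compound for 48 hours. Abbreviation: GI50, concentration required for 50% inhibition of growth.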 Active and inactive are the calls of the source. Cut-off read from the data, not from the text of the source: active = GI50 up to about 1.1 µM and inactive = higher.

Legend:
Assay in all cases: NCI anticancer screen, dose series, 48 h
786-0 = test system: 786-0
A498 = test system: A498
A549 = test system: A549
ACHN = test system: ACHN
CAKI-1 = test system: CAKI-1
CCRF-CEM = test system: CCRF-CEM
COLO 205 = test system: COLO 205
DU-145 = test system: DU-145
EKVX = test system: EKVX
HCC 2998 = test system: HCC 2998
HCT-116 = test system: HCT-116
HCT-15 = test system: HCT-15
HL-60 = test system: HL-60
HOP-62 = test system: HOP-62
HOP-92 = test system: HOP-92
HT-29 = test system: HT-29
IGROV-1 = test system: IGROV-1
K562 = test system: K562
KM12 = test system: KM12
LOX IMVI = test system: LOX IMVI
M14 = test system: M14
MCF7 = test system: MCF7
MDA-MB-231 = test system: MDA-MB-231
MDA-MB-435 = test system: MDA-MB-435
MDA-N = test system: MDA-N
MOLT-4 = test system: MOLT-4
NCI-H23 = test system: NCI-H23
NCI-H460 = test system: NCI-H460
NCI/ADR-RES = test system: NCI/ADR-RES
OVCAR-3 = test system: OVCAR-3
OVCAR-4 = test system: OVCAR-4
OVCAR-5 = test system: OVCAR-5
OVCAR-8 = test system: OVCAR-8
PC-3 = test system: PC-3
RPMI-8226 = test system: RPMI-8226
SF-295 = test system: SF-295
SK-MEL-28 = test system: SK-MEL-28
SK-MEL-2 = test system: SK-MEL-2
SK-MEL-5 = test system: SK-MEL-5
SK-OV-3 = test system: SK-OV-3
SN12C = test system: SN12C
SNB-19 = test system: SNB-19
SNB-75 = test system: SNB-75
SR = test system: SR
SW-620 = test system: SW-620
T47D = test system: T47D
TK-10 = test system: TK-10
U-251 = test system: U-251
UACC-257 = test system: UACC-257
UACC-62 = test system: UACC-62
UO-31 = test system: UO-31

Q: How did the GI50 (786-0) turn out when `COC(=O)N1C[C@@]2(C=CC3(CC2)OCCO3)c2ccccc21` was run?
A: Its GI50 is > 100 µM (inactive).

Q: What about the GI50 (A498) of the same compound?
A: The GI50 was > 100 µM (inactive).

Q: What about the GI50 (A549) of the same compound?
A: Its GI50 is > 100 µM (inactive).

Q: And the GI50 (ACHN)?
A: The GI50 was > 100 µM (inactive).

Q: What about the GI50 (CAKI-1) of the same compound?
A: Its GI50 is > 100 µM (inactive).

Q: What about the GI50 (CCRF-CEM) of the same compound?
A: Its GI50 is 45.2 µM (inactive).

Q: What about the GI50 (COLO 205) of the same compound?
A: Its GI50 is > 100 µM (inactive).

Q: What about the GI50 (DU-145) of the same compound?
A: The GI50 was > 100 µM (inactive).

Q: And the GI50 (EKVX)?
A: Its GI50 is 62.1 µM (inactive).

Q: What about the GI50 (HCC 2998) of the same compound?
A: The GI50 was > 100 µM (inactive).

Q: What about the GI50 (HCT-116) of the same compound?
A: The GI50 was > 100 µM (inactive).

Q: And the GI50 (HCT-15)?
A: The GI50 was 57.3 µM.

Q: What about the GI50 (HL-60) of the same compound?
A: The GI50 was 11.2 µM (inactive).

Q: And the GI50 (HOP-62)?
A: Its GI50 is > 100 µM (inactive).

Q: And the GI50 (HOP-92)?
A: Its GI50 is 44.1 µM (inactive).

Q: And the GI50 (HT-29)?
A: Its GI50 is 28.2 µM (inactive).

Q: And the GI50 (IGROV-1)?
A: The GI50 was 49.1 µM (inactive).

Q: What about the GI50 (K562) of the same compound?
A: Its GI50 is 48 µM (inactive).

Q: And the GI50 (KM12)?
A: The GI50 was 37.8 µM (inactive).

Q: What about the GI50 (LOX IMVI) of the same compound?
A: The GI50 was > 100 µM (inactive).

Q: What about the GI50 (M14) of the same compound?
A: Its GI50 is > 100 µM (inactive).

Q: What about the GI50 (MCF7) of the same compound?
A: Its GI50 is 96.4 µM (inactive).

Q: What about the GI50 (MDA-MB-231) of the same compound?
A: The GI50 was > 100 µM (inactive).

Q: What about the GI50 (MDA-MB-435) of the same compound?
A: The GI50 was 23.7 µM (inactive).

Q: What about the GI50 (MDA-N) of the same compound?
A: Its GI50 is 51.1 µM (inactive).

Q: What about the GI50 (MOLT-4) of the same compound?
A: The GI50 was 58.3 µM (inactive).

Q: And the GI50 (NCI-H23)?
A: Its GI50 is 95.7 µM (inactive).

Q: What about the GI50 (NCI-H460) of the same compound?
A: Its GI50 is 90.4 µM (inactive).

Q: And the GI50 (NCI/ADR-RES)?
A: The GI50 was 28.6 µM (inactive).

Q: And the GI50 (OVCAR-3)?
A: Its GI50 is > 100 µM (inactive).

Q: What about the GI50 (OVCAR-4) of the same compound?
A: The GI50 was > 100 µM (inactive).

Q: And the GI50 (OVCAR-5)?
A: Its GI50 is > 100 µM (inactive).

Q: And the GI50 (OVCAR-8)?
A: The GI50 was 39.5 µM (inactive).

Q: What about the GI50 (PC-3) of the same compound?
A: The GI50 was 63.7 µM (inactive).

Q: And the GI50 (RPMI-8226)?
A: The GI50 was 61.1 µM (inactive).

Q: And the GI50 (SF-295)?
A: Its GI50 is > 100 µM (inactive).

Q: And the GI50 (SK-MEL-28)?
A: Its GI50 is 67.1 µM (inactive).

Q: And the GI50 (SK-MEL-2)?
A: Its GI50 is > 100 µM (inactive).

Q: And the GI50 (SK-MEL-5)?
A: Its GI50 is 81.7 µM (inactive).

Q: And the GI50 (SK-OV-3)?
A: Its GI50 is > 100 µM (inactive).

Q: What about the GI50 (SN12C) of the same compound?
A: Its GI50 is > 100 µM (inactive).

Q: And the GI50 (SNB-19)?
A: Its GI50 is > 100 µM (inactive).

Q: What about the GI50 (SNB-75) of the same compound?
A: Its GI50 is 53.6 µM (inactive).

Q: What about the GI50 (SR) of the same compound?
A: The GI50 was 49.7 µM (inactive).

Q: What about the GI50 (SW-620) of the same compound?
A: The GI50 was 40.8 µM (inactive).

Q: What about the GI50 (T47D) of the same compound?
A: Its GI50 is > 100 µM (inactive).

Q: And the GI50 (TK-10)?
A: Its GI50 is > 100 µM (inactive).

Q: What about the GI50 (U-251) of the same compound?
A: Its GI50 is 41.1 µM (inactive).

Q: What about the GI50 (UACC-257) of the same compound?
A: Its GI50 is 71.3 µM (inactive).

Q: What about the GI50 (UACC-62) of the same compound?
A: Its GI50 is 65.5 µM (inactive).

Q: What about the GI50 (UO-31) of the same compound?
A: Its GI50 is > 100 µM (inactive).
